Measurements as given in PubChem BioAssay (NCI).
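Here, GI50 denotes the concentration required for 50% inhibition of growth. TGI: concentration producing complete growth inhibition.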

How the values were obtained:
Assay in all cases: growth of human tumour cells (NCI), 384-well format
[1] = tested on: 786-0 renal
[2] = tested on: A498 renal
[3] = tested on: A549 NSCLC
[4] = tested on: ACHN renal
[5] = tested on: BT-549 breast
[6] = tested on: CAKI-1 renal
[7] = tested on: CCRF-CEM leukemia
[8] = tested on: COLO 205 colon
[9] = tested on: DU-145 prostate
[10] = tested on: EKVX NSCLC
[11] = tested on: HCC-2998 colon
[12] = tested on: HCT-116 colon
[13] = tested on: HCT-15 colon
[14] = tested on: HL-60(TB) leukemia
[15] = tested on: HOP-62 NSCLC
[16] = tested on: HOP-92 NSCLC
[17] = tested on: HS 578T breast
[18] = tested on: HT29 colon
[19] = tested on: IGROV1 ovarian
[20] = tested on: K-562 leukemia
[21] = tested on: KM12 colon
[22] = tested on: LOX IMVI melanoma
[23] = tested on: M14 melanoma
[24] = tested on: MALME-3M melanoma
[25] = tested on: MCF7 breast
[26] = tested on: MDA-MB-231 breast
[27] = tested on: MDA-MB-435 melanoma
[28] = tested on: MDA-MB-468 breast
[29] = tested on: MOLT-4 leukemia
[30] = tested on: NCI-H226 lung
[31] = tested on: NCI-H23 lung
[32] = tested on: NCI-H322M lung
[33] = tested on: NCI-H460 NSCLC
[34] = tested on: NCI-H522 lung
[35] = tested on: NCI/ADR-RES ovarian
[36] = tested on: OVCAR-3 ovarian
[37] = tested on: OVCAR-4 ovarian
[38] = tested on: OVCAR-8 ovarian
[39] = tested on: PC-3 prostate
[40] = tested on: RPMI-8226 leukemia
[41] = tested on: RXF 393 renal
[42] = tested on: SF-268 CNS
[43] = tested on: SF-295 CNS
[44] = tested on: SF-539 CNS
[45] = tested on: SK-MEL-28 melanoma
[46] = tested on: SK-MEL-5 melanoma
[47] = tested on: SK-OV-3 ovarian
[48] = tested on: SN12C renal
[49] = tested on: SNB-19 CNS
[50] = tested on: SNB-75 CNS
[51] = tested on: SR leukemia
[52] = tested on: SW-620 colon
[53] = tested on: T-47D breast
[54] = tested on: TK-10 renal
[55] = tested on: U251 glioblastoma
[56] = tested on: UACC-257 melanoma
[57] = tested on: UACC-62 melanoma
[58] = tested on: UO-31 renal

## Cn1ncc(NC(=O)c2nc(-c3c(F)cccc3F)sc2N)c1N1CC[C@@H](N)[C@H](F)CC1
[1]
  GI50: 4.22 µM
  TGI: 14.8 µM
[2]
  GI50: 3.02 µM
  TGI: 13.7 µM
[3]
  GI50: 4.22 µM
  TGI: 15.7 µM
[4]
  GI50: 3.25 µM
  TGI: 15.6 µM
[5]
  GI50: 1.72 µM
  TGI: 5.44 µM
[6]
  GI50: 1.16 µM
  TGI: 4.92 µM
[7]
  GI50: 1.48 µM
  TGI: 3.11 µM
[8]
  GI50: 5.42 µM
  TGI: 19 µM
[9]
  GI50: 4.19 µM
  TGI: 15.7 µM
[10]
  GI50: 3.8 µM
  TGI: 17.5 µM
[11]
  GI50: 8.83 µM
  TGI: 21.2 µM
[12]
  GI50: 4.01 µM
  TGI: 15.6 µM
[13]
  GI50: 5.03 µM
  TGI: 17.5 µM
[14]
  GI50: 1.51 µM
  TGI: 2.91 µM
[15]
  GI50: 5.55 µM
  TGI: 18.3 µM
[16]
  GI50: 3.18 µM
  TGI: 13 µM
[17]
  GI50: 2.83 µM
  TGI: 5.52 µM
[18]
  GI50: 7.09 µM
  TGI: 19.9 µM
[19]
  GI50: 3.69 µM
  TGI: 13.7 µM
[20]
  GI50: 2.19 µM
  TGI: 10.6 µM
[21]
  GI50: 6.59 µM
  TGI: 19.3 µM
[22]
  GI50: 4.33 µM
  TGI: 14.5 µM
[23]
  GI50: 2.44 µM
  TGI: 14.3 µM
[24]
  GI50: 2.58 µM
  TGI: 12.7 µM
[25]
  GI50: 2.82 µM
  TGI: 10.9 µM
[26]
  GI50: 4.31 µM
  TGI: 16 µM
[27]
  GI50: 3.2 µM
  TGI: 15.4 µM
[28]
  GI50: 2.8 µM
  TGI: 11.6 µM
[29]
  GI50: 1.61 µM
  TGI: 2.98 µM
[30]
  GI50: 2.22 µM
  TGI: 9.62 µM
[31]
  GI50: 10.9 µM
  TGI: 23 µM
[32]
  GI50: 6.85 µM
  TGI: 21.3 µM
[33]
  GI50: 3.49 µM
  TGI: 12.6 µM
[34]
  GI50: 2.49 µM
  TGI: 9.18 µM
[35]
  GI50: 16.5 µM
  TGI: 33.2 µM
[36]
  GI50: 3.89 µM
  TGI: 14.9 µM
[37]
  GI50: 18.9 µM
  TGI: 34.2 µM
[38]
  GI50: 7.11 µM
  TGI: 19.7 µM
[39]
  GI50: 3.23 µM
  TGI: 12.9 µM
[40]
  GI50: 0.0454 µM
  TGI: 4.12 µM
[41]
  GI50: 3.15 µM
  TGI: 13.1 µM
[42]
  GI50: 3.47 µM
  TGI: 14.2 µM
[43]
  GI50: 5.52 µM
  TGI: 17.8 µM
[44]
  GI50: 3.21 µM
  TGI: 13.3 µM
[45]
  GI50: 10.4 µM
  TGI: 22.2 µM
[46]
  GI50: 1.35 µM
  TGI: 12.2 µM
[47]
  GI50: 1.83 µM
  TGI: 9.95 µM
[48]
  GI50: 2.55 µM
  TGI: 11.1 µM
[49]
  GI50: 12.1 µM
  TGI: 26.1 µM
[50]
  GI50: 2.93 µM
  TGI: 10.8 µM
[51]
  GI50: 0.0471 µM
  TGI: 0.602 µM
[52]
  GI50: 3.29 µM
  TGI: 12.2 µM
[53]
  GI50: 15.3 µM
  TGI: 30 µM
[54]
  GI50: 2.88 µM
  TGI: 15.4 µM
[55]
  GI50: 6.23 µM
  TGI: 18.7 µM
[56]
  GI50: 7.52 µM
  TGI: 20 µM
[57]
  GI50: 3.34 µM
  TGI: 11.7 µM
[58]
  GI50: 1.96 µM
  TGI: 5.94 µM
